According to US20210228551A1, “THERAPEUTIC AGENT FOR HUMORAL IMMUNITY-RELATED DISEASES IN MATERNOFETAL RELATIONSHIP” (priority 2018, published 2021):
“Also recorded” adds a separate entry of the source.

How the values were obtained:
Format in all cases: in vivo, human
[1] = test system: blood type incompatible pregnancy with negative maternal Rho (D) and positive fetal Rho (D); test: Treatment of blood type incompatible pregnancy with tacrolimus: fetal and neonatal outcome
Text: The patient is a person having blood type A. The patient suffering from a blood type incompatible pregnancy with negative maternal Rho (D) and positive fetal Rho (D) was subjected to the following treatments. That is, at the time of the first pregnancy, anti-D immunoglobulin was not administered during pregnancy, sensitization was effected before delivery, and the anti-D antibody titer at the time of delivery was 8-fold. In week 39, they gave birth by emergency cesarean section due to placental abruption. […] The anti-D antibody titer obtained immediately after the establishment of pregnancy was 4-fold; however, the titer reached 16-fold in week 24 and reached 32-fold in week 26 (FIG. 1, upper part). After that, migration of fetal antigens to the parent's body via the placenta was assumed to further increase, and preparation of plasmapheresis and fetal blood transfusion was initiated in preparation for a rapid increase in the anti-D antibody titer. […] Furthermore, the blood flow velocity in the middle cerebral artery and the estimated body weight of the fetus were measured by fetal ultrasonography.

Th1 cells = test: Analysis of Th1 cells and Th2 cells by flow cytometry; settings: maternal blood; week 28 of pregnancy; tacrolimus 4 mg/day oral
Method: For the purpose of evaluating the baseline value of the Th1/Th2 cell ratio, a total of 10 ml of venous blood was collected. Th1 cells and Th2 cells were determined by detecting the production of intracellular interferon (IFN)-γ and IL-4. Specific staining of lymphocytes was performed by incubating whole blood together with anti-CD4-PC5 or anti-CD8-PC5-conjugated monoclonal antibody (rAbs) (Beckman Coulter, Inc., Fullerton, Ca, USA). Red blood cells (RBCs) were removed by hemolysis (using FACS Lysing solution; Becton, Dickinson and Company, BD 134 Biosciences, Franklin Lake, N.J., USA), and lymphocytes were analyzed using flow cytometry (FACSCalibur; Becton, Dickinson and Company). Activated whole blood samples were surface-stained using anti-CD4-PC5-conjugate (Abs), and then RBC hemolysis and specific intracellular staining using FastImmune (trademark) IFN-γ-FITC/IL-4-PE (Becton, Dickinson and Company) were carried out in sequence according to the manufacturer's instructions for use. Th1 cells were defined as CD4^+ lymphocytes accompanied by intracellular IFN-γ but not by intracellular IL-4. Th2 cells were detected as CD4^+ lymphocytes accompanied by intracellular IL-4 but not by intracellular IFN-γ. The ratio of intracellular IFN-γ-positive Th cells with respect to intracellular IL-4-positive Th cells was expressed as the Th1/Th2 cell ratio.

[2] = Concentration of tacrolimus in the cord blood by chemiluminescence immunoassay (ECLIA); settings: cord blood at delivery, maternal dose 5 mg/day oral
[3] = test system: infecundity considered to be caused by an abnormality in the immune system; test: Tacrolimus treatment of infecundity: embryo transplantation outcome; settings: tacrolimus 4 mg/day oral (2 mg morning, 2 mg evening); after five unsuccessful embryo transplantations
Method: Two years later, […] hoped to have a second child but suffered from infecundity and was treated for sterility by in vitro fertilization; however, since the treatment was unsuccessful after five embryo transplantations, a close examination of the immune system was conducted. At that time, a marked increase (24.9) in the Th1/Th2 (Th1 32.4, Th2 1.3) ratio was recognized, the illness was judged as infecundity considered to be caused by an abnormality in the immune system, and a tacrolimus treatment was selected.

anti-D antibody = test: Anti-D antibody titer by indirect Coombs test in a patient treated with tacrolimus
Method: The measurement is carried out by the indirect Coombs test. The indirect Coombs test is a test in which an anti-immunoglobulin antibody is added to a mixture of the blood serum of a patient and the blood of a healthy person to examine whether a hemagglutination reaction occurs (irregular antibody present in the blood serum is detected) (for the Coombs test, see, for example, Nissan Women's Journal Vol. 59, No. 10, N-617-N-623). The patient is a person having blood type A. The patient suffering from a blood type incompatible pregnancy with negative maternal Rho (D) and positive fetal Rho (D) was subjected to the following treatments. That is, at the time of the first pregnancy, anti-D immunoglobulin was not administered during pregnancy, sensitization was effected before delivery, and the anti-D antibody titer at the time of delivery was 8-fold. In week 39, they gave birth by emergency cesarean section due to placental abruption. […] The anti-D antibody titer obtained immediately after the establishment of pregnancy was 4-fold; however, the titer reached 16-fold in week 24 and reached 32-fold in week 26 (FIG. 1, upper part). After that, migration of fetal antigens to the parent's body via the placenta was assumed to further increase, and preparation of plasmapheresis and fetal blood transfusion was initiated in preparation for a rapid increase in the anti-D antibody titer. […] Furthermore, the blood flow velocity in the middle cerebral artery and the estimated body weight of the fetus were measured by fetal ultrasonography.

[4] = fetal ultrasonography, tacrolimus 4 then 5 mg/day oral

maternal and fetal conditions / course of pregnancy ([1]; tacrolimus 4 then 5 mg/day oral): stable without complications
Compound: C=CCC1/C=C(\C)CC(C)CC(OC)C2OC(O)(C(=O)C(=O)N3CCCCC3C(=O)OC(/C(C)=C/C3CCC(O)C(OC)C3)C(C)C(O)CC1=O)C(C)CC2OC (centres unmarked) [tacrolimus, 17-Allyl-1,14-dihydroxy-12-[2-(4-hydroxy-3-methoxycyclohexyl)-1-methylvinyl]-23,25-dimethoxy-13,19,21,27-tetramethyl-11,28-dioxa-4-azatricyclo[22.3.1.04,9]octacos-18-ene-2,3,10,16-tetraone]
malformations and physical functions of the child ([1]; child at birth, maternal tacrolimus during the entire pregnancy): no external malformations or visceral malformations and no problem with physical functions
birth weight of the child ([1]; delivery on day 2 of week 37): 2834 g
fetal anemia (increased blood flow velocity in the middle cerebral artery) [1, 4]: without observing any fetal anemia; also recorded: fetal anemia did not develop during the entire course of pregnancy
growth of the fetus (estimated body weight) [1, 4]: The body weight smoothly increased; also recorded: growth of the child occurred without any problem
Th1 cell population (Th1 cells): showed a tendency of increase again
concentration of tacrolimus in the cord blood [2]: lower than or equal to the detection limit value
establishment of pregnancy [3]: Pregnancy was established by a single embryo transplantation
anti-D antibody titer in the cord blood (anti-D antibody; cord blood at delivery): double
course of anti-D antibody titer / anti-D antibody production (anti-D antibody; maternal, after dose increase to 5 mg/day in week 28 of pregnancy): the titer did not further increase and was stabilized; also recorded: the expected increase in the anti-D antibody titer did not occur at all; also recorded: the production of anti-D antibody was also suppressed
anti-D antibody titer (anti-D antibody; maternal, after dose increase to 5 mg/day oral (week 28) until delivery): 32 fold
anti-D antibody titer (anti-D antibody; maternal, immediately after the establishment of pregnancy, tacrolimus 4 mg/day oral): 4 fold
anti-D antibody titer (anti-D antibody; maternal, week 24 of pregnancy, tacrolimus 4 mg/day oral): 16 fold
anti-D antibody titer (anti-D antibody; maternal, week 26 of pregnancy, tacrolimus 4 mg/day oral): 32 fold
